Assays:
MSSA = assay: Phase 2 cSSSI study: cure rate by baseline pathogen; format: in vivo, Staphylococcus aureus; details: MSSA at baseline
Procedure: (§1) The primary efficacy endpoint was the clinical response in the CE population at TOC, which occurred 20 to 28 days after study enrollment on Day 1. Clinical response was determined by the investigator as part of the end-of-therapy, TOC, and late follow-up procedures by assessing signs and symptoms including fever, pain, tenderness, erythema, induration, edema, purulent drainage, eschar, and devitalized tissue. A clinical response of cure, improvement, failure, or indeterminate was assigned at end-of-therapy and TOC by the investigator based on clinical signs and symptoms. At late follow-up, the investigator could assign the clinical response of relapse in addition to cure, improvement, or indeterminate. Only patients with a clinical response of cure or improvement at TOC were assessed for clinical response at late follow-up.
(§2) Cure was defined as resolution of purulent drainage, pain, edema, fever, erythema, tenderness, and induration. Serous drainage or aspirate and/or granulation tissue could be present. Improvement was defined as resolution of purulent drainage and, in the case of cellulitis, cessation of fever and pain. Residual erythema, edema, pain (in the case of wound or abscess), tenderness, and/or induration could be present as could serous drainage, granulation tissue, eschar, and/or devitalized tissue. Failure included any of the following: presence of purulent drainage (or aspirate) and/or fever; the unanticipated need for abscess drainage or removal of sutures (for treatment of infection)>48 hours after initiation of study therapy; or treatment with nonstudy systemic antibiotic having activity against gram-positive pathogen(s) for the primary infection site or use of topical antibiotics at the site of primary infection 24 hours or more after initiation of study medication therapy.
(§3) Blood and infection site cultures were obtained within three days of enrollment (often done at the time of enrollment). End-of-therapy, TOC, and late follow-up (or at early relapse) cultures were obtained from the infection site if clinically indicated. […] Specimens were cultured and pathogens were identified at each investigative site's certified laboratory. All isolated gram-positive pathogen(s) that were obtained from the infection site at baseline/randomization and up to and including the TOC time point were subcultured and sent to a central laboratory (Covance Clinical Laboratories, Indianapolis, Ind.) for confirmatory identification and susceptibility testing. In cases of discrepancy between the local and the central laboratory, central laboratory results were used.

MRSA = assay: as above; format: in vivo, Staphylococcus aureus; details: MRSA at baseline, TOC
Procedure: as §1, §2, §3

[1] = test system: cSSSI due to gram-positive pathogens; assay: Phase 2 randomized double-blind study of three oritavancin dose regimens in cSSSI: clinical response at test-of-cure; format: in vivo, human; details: for Cure (cure and improvement), % of patients: TOC
Procedure: A phase 2, multi-center, randomized, double-blind, parallel, active-comparator study in which three dose regimens of oritavancin were explored as a treatment for cSSSI due to gram-positive pathogens was conducted using: a daily dose (200 mg) administered for three to seven days, a single dose (1200 mg), and an infrequent dose (800 mg dose with option for an additional 400 mg on Day 5).
Patients were randomized through an interactive voice response system in a 1:1:1 ratio to receive either 1) oritavancin […] daily dose: 200 mg IV daily for 3 to 7 days as determined by the investigator based on clinical criteria, 2) oritavancin single dose: 1200 mg oritavancin IV on Day 1, or; 3) oritavancin infrequent dose: 800 mg IV on Day 1 with optional 400 mg IV on Day 5 as determined by investigator based on clinical criteria. During randomization patients were stratified by disease categories of wound infection, major abscess, and cellulitis. Placebo IV (5% dextrose in water) was given to maintain the blind.
Analyses were performed on four patient populations: intent-to-treat (ITT), modified intent-to-treat (MITT), clinically evaluable (CE) and microbiologically evaluable (ME). The ITT population included patients who were randomized to treatment and received any amount of study medication. Two patients who were potentially unblinded were excluded from the ITT population for all efficacy analyses. The MITT population included all ITT patients with a gram-positive pathogen isolated at baseline.
as §1, §2
The primary efficacy endpoint was clinical response (either cure or improvement versus failure) at TOC in the CE population. The primary efficacy analyses were a comparison of the proportions of CE patients with a clinical response of cure (defined as investigator assessment of cure or improvement) in the daily dose group compared to, 1) the single dose group and 2) the infrequent dose group. Adjusted estimates for the differences in response rates and the corresponding confidence intervals (CI) were constructed using the Mantel-Haenszel method stratified by disease category.

[2] = Clinically evaluable, cellulitis
[3] = Clinically evaluable, major abscess
[4] = Clinically evaluable, Mantel-Haenszel stratified by disease
[5] = Intent to treat, Mantel-Haenszel stratified by disease
[6] = Microbiologically evaluable, Mantel-Haenszel stratified by disease
[7] = Modified intent-to-treat, Mantel-Haenszel stratified by disease

SMILES: CN[C@H](CC(C)C)C(=O)N[C@H]1C(=O)N[C@@H](CC(N)=O)C(=O)N[C@H]2C(=O)N[C@H]3C(=O)N[C@H](C(=O)N[C@H](C(=O)O)c4cc(O)cc(O)c4-c4cc3ccc4O)[C@H](O[C@H]3C[C@](C)(N)[C@@H](O)[C@H](C)O3)c3ccc(c(Cl)c3)Oc3cc2cc(c3O[C@@H]2O[C@H](CO)[C@@H](O)[C@H](O)[C@H]2O[C@H]2C[C@](C)(NCc3ccc(-c4ccc(Cl)cc4)cc3)[C@@H](O)[C@H](C)O2)Oc2ccc(cc2Cl)[C@H]1O [Oritavancin, N-(4-(4-chlorophenyl)benzyl)A82846B]
- % of patients cured (cure and improvement) (MSSA; 200 mg daily dose): 56.5%
- % of patients cured (cure and improvement) (MSSA; 800 mg infrequent dose): 68.8%
- % of patients cured (cure and improvement) (MSSA; 1200 mg single dose): 90.9%
- % of patients cured (cure and improvement) (MRSA; 200 mg daily dose): 78.3%
- % of patients cured (cure and improvement) (MRSA; 800 mg infrequent dose): 87.0%
- % of patients cured (cure and improvement) (MRSA; 1200 mg single dose): 73.0%
- Estimated Difference in cure rate 800 mg − 200 mg [1, 2]: 14.4%
- Estimated Difference in cure rate 1200 mg − 200 mg [1, 2]: 29.2%
- Cure (cure and improvement), % of patients ([1]; Clinically evaluable, cellulitis, 200 mg IV daily for 3 to 7 days): 58.3%
- Cure (cure and improvement), % of patients ([1]; Clinically evaluable, cellulitis, 800 mg IV Day 1 with optional 400 mg Day 5): 72.7%
- Cure (cure and improvement), % of patients ([1]; Clinically evaluable, cellulitis, single dose 1200 mg IV Day 1): 87.5%
- Estimated Difference in cure rate 800 mg − 200 mg [1, 3]: −4.8%
- Estimated Difference in cure rate 1200 mg − 200 mg [1, 3]: −2.3%
- Cure (cure and improvement), % of patients ([1]; Clinically evaluable, major abscess, 200 mg IV daily for 3 to 7 days): 92.3%
- Cure (cure and improvement), % of patients ([1]; Clinically evaluable, major abscess, 800 mg IV Day 1 with optional 400 mg Day 5): 87.5%
- Cure (cure and improvement), % of patients ([1]; Clinically evaluable, major abscess, single dose 1200 mg IV Day 1): 90.0%
- Estimated Difference in cure rate 800 mg − 200 mg ([1]; Clinically evaluable, wound): 6.6%
- Estimated Difference in cure rate 1200 mg − 200 mg ([1]; Clinically evaluable, wound): 1.3%
- Cure (cure and improvement), % of patients ([1]; Clinically evaluable, wound, 200 mg IV daily for 3 to 7 days): 65.4%
- Cure (cure and improvement), % of patients ([1]; Clinically evaluable, wound, 800 mg IV Day 1 with optional 400 mg Day 5): 72.0%
- Cure (cure and improvement), % of patients ([1]; Clinically evaluable, wound, single dose 1200 mg IV Day 1): 66.7%
- Estimated Difference in cure rate 800 mg − 200 mg [1, 4]: 5.2%
- Estimated Difference in cure rate 1200 mg − 200 mg [1, 4]: 8.6%
- Cure (cure and improvement), % of patients ([1]; Clinically evaluable, 200 mg IV daily for 3 to 7 days): 72.4%
- Cure (cure and improvement), % of patients ([1]; Clinically evaluable, 800 mg IV Day 1 with optional 400 mg Day 5): 77.5%
- Cure (cure and improvement), % of patients ([1]; Clinically evaluable, single dose 1200 mg IV Day 1): 81.5%
- Cure rate ([1]; Clinically evaluable, infrequent dose group, 800 mg Day 1 plus optional 400 mg Day 5): 77.1%
- Cure rate ([1]; Clinically evaluable, infrequent dose group, only 800 mg on Day 1): 78.3%
- Estimated Difference in cure rate 800 mg − 200 mg [1, 5]: 5.1%
- Estimated Difference in cure rate 1200 mg − 200 mg [1, 5]: 8.7%
- Cure (cure and improvement), % of patients ([1]; Intent to treat, 200 mg IV daily for 3 to 7 days): 72.4%
- Cure (cure and improvement), % of patients ([1]; Intent to treat, 800 mg IV Day 1 with optional 400 mg Day 5): 78.2%
- Cure (cure and improvement), % of patients ([1]; Intent to treat, single dose 1200 mg IV Day 1): 81.8%
- Estimated Difference in cure rate 800 mg − 200 mg [1, 6]: 11.0%
- Estimated Difference in cure rate 1200 mg − 200 mg [1, 6]: 8.5%
- Cure (cure and improvement), % of patients ([1]; Microbiologically evaluable, 200 mg IV daily for 3 to 7 days): 69.1%
- Cure (cure and improvement), % of patients ([1]; Microbiologically evaluable, 800 mg IV Day 1 with optional 400 mg Day 5): 81.3%
- Cure (cure and improvement), % of patients ([1]; Microbiologically evaluable, single dose 1200 mg IV Day 1): 79.3%
- Estimated Difference in cure rate 800 mg − 200 mg [1, 7]: 11.1%
- Estimated Difference in cure rate 1200 mg − 200 mg [1, 7]: 10.1%
- Cure (cure and improvement), % of patients ([1]; Modified intent-to-treat, 200 mg IV daily for 3 to 7 days): 68.8%
- Cure (cure and improvement), % of patients ([1]; Modified intent-to-treat, 800 mg IV Day 1 with optional 400 mg Day 5): 80.6%
- Cure (cure and improvement), % of patients ([1]; Modified intent-to-treat, single dose 1200 mg IV Day 1): 80.3%
- Patients with cellulitis who failed having unplanned surgical procedures or interventions ([1]; daily dose group (200 mg)): 29%
- Relapse in CE patients ([1]; daily dose group, late follow-up): no patients
- Patients with cellulitis who failed having unplanned surgical procedures or interventions ([1]; infrequent dose group (800 mg)): 7%
- Relapse rate in CE patients ([1]; infrequent dose group, late follow-up): 3.7%
- Patients with cellulitis who failed having unplanned surgical procedures or interventions ([1]; single dose group (1200 mg), n/total): 0/9
- Relapse rate in CE patients ([1]; single dose group, late follow-up): 1.6%

— US8420592B2, “Methods of treatment using single doses of oritavancin” (The Medicines Company, priority 2008, dated 2013)
